We go through four molecules from patent US11078211B2, “Photoresponsive nucleotide analog capable of photocrosslinking in visible light region” (JAPAN ADVANCED INSTITUTE OF SCIENCE AND TECHNOLOGY, priority 2017, dated 2021).

Data set [1] relates to ODN(T) (5′-ACGGGTGCA-3′), thymine. The experiment in a line: Photocrosslinking reaction targeted for thymine, HPLC analysis after light irradiation. The conditions noted are these: for conversion rate: irradiation for one hour. As for the experimental part:
(§1) To an equal amount mixture (5 μM in 50 mM Na-Cacodylate buffer (pH 7.4), 100 mM NaCl) of the oligo DNA containing pc-D [hereinafter referred to as ODN (Y·pc-D), in which Y is A (adenine) or G (guanine)] and a complementary oligo DNA [hereinafter referred to as ODN(Z), in which Z is T (thymine) or C (cytosine)] was added deoxyuridine (25 μM) as an internal standard, and irradiated with light at 4° C. (400 nm, […]). The solution was analyzed by HPLC (eluent: acetonitrile/50 mM of ammonium formate; 1-20% of acetonitrile/10 min; a flow rate: 0.2 mL/min) to evaluate photoreactivity.
FIG. 3a is an explanatory diagram showing the flow of the operations. In the ODN (A-pc-D)(5′-TGCAXCCGT-3′)(SEQ ID NO: 1) in which the target of photocrosslinking is thymine (T). the nucleoside analog (pc-D) according to the present invention is introduced as an improved photoreactive element at a position of X in the sequence.
Charts arranged in the vertical axis direction correspond to light irradiation times (0 sec, 1 sec, 5 sec. 10 sec, and 30 sec), and the horizontal axis indicates a retention time (minutes). The peaks of ODN (A⋅pc-D) and ODN (T), which were present before light irradiation (0 sec), were reduced by the light irradiation, and at the same time, a peak of a photodimer (ODN (pc-D/T)) with ODN (A⋅pc-D) and ODN (T) crosslinked appeared. As the light irradiation time increased, the peak area of(ODN (pc-D/T)) increased, confirming that the photocrosslinking reaction was progressing. FIG. 3c is a graph showing a change in a crosslinking rate as a function of light irradiation time. In FIG. 3c, the horizontal axis represents a light irradiation time (seconds), and the vertical axis represents a conversion rate (%). The conversion rate, i.e., a rate of change from a monomer to a dimer, was defined as a conversion rate of 100% for a case of being completely changed to the dimer.
The respective conversion rates were 86% at 450 nm, 70% at 500 nm, and 38% at 550 nm.
The photocrosslinking reaction was carried out by the same procedure as that of ODN (A-pc-D), using a pc-S-containing oligo DNA in which T (thymine) was a target for the photocrosslinking (5′-TGCAXCCGT-3′: hereinafter referred to as ODN (A-pc-S)) (SEQ ID NO: 5), and ODN (T) which was a complementary oligo DNA (FIG. 6a).
Charts arranged in the vertical axis direction correspond to light irradiation times (0 seconds, 60 seconds), respectively, and the horizontal axis indicates a retention time (minutes).

The conditions of data set [2]: irradiation with light having 350 nm; cited from earlier work.
The test system of data set [3] is ODN (C) (5′-ACGGGCGCA-3′), cytosine. The data set can be described thus: Photocrosslinking reaction targeted for cytosine, HPLC analysis after light irradiation. The note with it: 400 nm, 30 seconds. As for the experimental part: as §1
The photocrosslinking reaction was carried out by the same procedure as that of ODN (A⋅pc-D), using a pc-D-containing oligo DNA in which C (cytosine) was a target for the photocrosslinking (5′-TGCGXCCGT-3′; hereinafter referred to as ODN (G-pc-D)) (SEQ ID NO: 3) and a complementary oligo DNA (5′-ACGGGCGCA-3′: hereinafter referred to as ODN (C))(FIG. 4a)(SEQ ID NO: 4). As a result of irradiation with light having 400 nm for 30 seconds, the conversion rate by photocrosslinking was 71% (FIG. 4b).

Consider “ODN (A·pc-S): Oligo DNA 5′-TGCAXCCGT-3′, in which X is the nucleic acid photoreactive element (pc-S) (DNA TGCANCCGT; photoreactive element pc-S, chemistry not fully specified)”, for which the “photodimer formation (HPLC)” value in data set [1] (400 nm, 60 seconds) is “a peak of the photodimer (ODN (pc-S/T) appeared”.

Turning to `O=c1ccc2cc3ccoc3cc2o1` [psoralen], the “time required for photoreaction” value in data set [2] is listed as “several hours”.

As to “ODN (G-pc-D): Oligo DNA 5′-TGCGXCCGT-3′, in which X is the nucleic acid photoreactive element (pc-D) (DNA TGCGNCCGT; photoreactive element pc-D, chemistry not fully specified)”, the “conversion rate by photocrosslinking” value in data set [3] is listed as 71%.

For “ODN (A·pc-D): Oligo DNA 5′-TGCAXCCGT-3′, in which X is the nucleic acid photoreactive element (pc-D) (DNA TGCANCCGT; photoreactive element pc-D, chemistry not fully specified)”, the “conversion rate (monomer to photodimer)” value in data set [1] (400 nm, 10 seconds of irradiation, 4° C., 5 μM, pH 7.4) stood at 94%. In data set [1] (400 nm, after one hour, 4° C.), this molecule registered a crosslinking of about 100%. The figures for the conversion rate in data set [1] (450 nm), in data set [1] (500 nm) and in data set [1] (550 nm) were 86%, 70% and 38%, respectively.
